Results from article PMC7105723, “A Ganoderma-Derived Compound Exerts Inhibitory Effect Through Formyl Peptide Receptor 2” (Frontiers in Pharmacology, 2020).

Molecular target: T1, formyl peptide receptor 2 (FPR2) (Homo sapiens, UniProt P25090)
T1 construct: human FPR2 stably expressed in RBL-2H3 cells; FPR2-ICL3-FlAsH/C-terminal ECFP in HEK-293 cells for FRET
T1 sequence (P25090 1-351): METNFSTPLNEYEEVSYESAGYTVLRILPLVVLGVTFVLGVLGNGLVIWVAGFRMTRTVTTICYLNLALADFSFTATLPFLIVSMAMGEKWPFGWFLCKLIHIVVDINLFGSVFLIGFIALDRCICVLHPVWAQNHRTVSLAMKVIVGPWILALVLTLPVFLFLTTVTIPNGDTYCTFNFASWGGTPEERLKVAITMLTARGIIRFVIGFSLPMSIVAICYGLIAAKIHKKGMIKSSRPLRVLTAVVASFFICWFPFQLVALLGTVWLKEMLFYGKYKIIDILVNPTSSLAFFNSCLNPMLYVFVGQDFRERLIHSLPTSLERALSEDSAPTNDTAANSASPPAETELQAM
Experiment: competition with WK(FITC)YMVm on RBL-FPR2 cells by flow cytometry (partial); FlAsH FRET conformational change
Format: cell-based

IC50: 3.2 µM
Structure (SMILES): CC(C)=CCC/C(C)=C/CC/C(=C/Cc1cc(O)ccc1O)CO [C18, ganomycin F]
